{"source": "patent US9540323B2", "about": "(BRISTOL-MYERS SQUIBB COMPANY, priority 2012, dated 2017)", "key": {"[1]": {"target": "cloned human P2Y1 receptors (Homo sapiens (Human), UniProt P47900)", "sequence (P47900 whole entry)": "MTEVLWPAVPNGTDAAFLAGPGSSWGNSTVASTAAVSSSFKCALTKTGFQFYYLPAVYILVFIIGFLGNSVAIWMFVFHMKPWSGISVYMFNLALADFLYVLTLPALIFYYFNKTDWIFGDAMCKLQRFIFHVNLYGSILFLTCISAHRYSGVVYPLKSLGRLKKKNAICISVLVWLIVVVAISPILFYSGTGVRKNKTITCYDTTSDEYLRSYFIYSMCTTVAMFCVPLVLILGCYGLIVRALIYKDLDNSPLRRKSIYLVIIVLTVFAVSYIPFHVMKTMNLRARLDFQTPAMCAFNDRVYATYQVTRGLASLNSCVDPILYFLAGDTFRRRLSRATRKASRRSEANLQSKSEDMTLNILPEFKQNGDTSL", "test": "Binding Assay B - Scintillation Proximity Assay (SPA) for P2Y1 binding, [33P] 2MeS-ADP", "conditions": "SPA, 0.3 nM [33P] 2MeS-ADP, Cheng-Prusoff; read-out: P2Y1 Ki (nM) using binding assay B", "description": "Binding Assay B—Scintillation Proximity Assay (SPA) for P2Y1 Binding\nA SPA membrane binding assay was used to identify inhibitors of [^33P] […] Reactions were allowed to proceed to completion at room temperature for 1 hour followed by centrifugation of the plate for 5 min. About 40 μL of the aqueous solution was aspirated. Plates were sealed and the [^33P]"}, "[2]": {"tested_on": "human platelet rich plasma (PRP)", "test": "ADP induced platelet aggregation assay", "conditions": "Homo sapiens, Platelet, 5 min, read-out: PA IC50 (μM) @ 10 μM ADP, human PRP, 10 μM ADP, AUC at 5 minute"}}, "data": [{"smiles": "Cn1nc(C(F)(F)F)cc1-c1c(F)cc(O)c2c1C(C)(C)CN2c1ccccc1NC(=O)Nc1ccc(OC(F)(F)F)cc1", "note": "[Example 183, 1-(2-(5-Fluoro-7-hydroxy-3,3-dimethyl-4-(1-methyl-3-(trifluoromethyl)-1H-pyrazol-5-yl)indolin-1-yl)phenyl)-3-(4-(trifluoromethoxy)phenyl)urea]", "values": [{"measurement": "Ki", "setting": "[1]", "value": 11.3, "unit": "nM"}, {"measurement": "IC50", "setting": "[2]", "value": 0.21, "unit": "µM"}]}, {"smiles": "CC(C)Cn1cc(-c2c(F)cc(O)c3c2C(C)(C)CN3c2ccccc2NC(=O)Nc2ccc(OC(F)(F)F)cc2)cn1", "note": "[Example 184, 1-(2-(5-Fluoro-7-hydroxy-4-(1-isobutyl-1H-pyrazol-4-yl)-3,3-dimethylindolin-1-yl)phenyl)-3-(4-(trifluoromethoxy)phenyl)urea]", "values": [{"measurement": "Ki", "setting": "[1]", "value": 10.7, "unit": "nM"}, {"measurement": "IC50", "setting": "[2]", "value": 0.26, "unit": "µM"}]}, {"smiles": "CC(C)CCn1cc(-c2c(F)cc(O)c3c2C(C)(C)CN3c2ccccc2NC(=O)Nc2ccc(OC(F)(F)F)cc2)cn1", "note": "[Example 185, 1-(2-(5-Fluoro-7-hydroxy-4-(1-isopentyl-1H-pyrazol-4-yl)-3,3-dimethylindolin-1-yl)phenyl)-3-(4-(trifluoromethoxy)phenyl)urea]", "values": [{"measurement": "Ki", "setting": "[1]", "value": 13.3, "unit": "nM"}, {"measurement": "IC50", "setting": "[2]", "value": 0.16, "unit": "µM"}]}, {"smiles": "Cc1c(-c2c(F)cc(O)c3c2C(C)(C)CN3c2ccccc2NC(=O)Nc2ccc(OC(F)(F)F)cc2)cnn1-c1ccccc1", "note": "[Example 186, 1-(2-(5-Fluoro-7-hydroxy-3,3-dimethyl-4-(5-methyl-1-phenyl-1H-pyrazol-4-yl)indolin-1-yl)phenyl)-3-(4-(trifluoromethoxy)phenyl)urea]", "values": [{"measurement": "Ki", "setting": "[1]", "value": 17.6, "unit": "nM"}, {"measurement": "IC50", "setting": "[2]", "value": 0.67, "unit": "µM"}]}, {"smiles": "Cc1nn(C)c(C)c1-c1c(F)cc(O)c2c1C(C)(C)CN2c1ccccc1NC(=O)Nc1ccc(OC(F)(F)F)cc1", "note": "[Example 187, 1-(2-(5-Fluoro-7-hydroxy-3,3-dimethyl-4-(1,3,5-trimethyl-1H-pyrazol-4-yl)indolin-1-yl)phenyl)-3-(4-(trifluoromethoxy)phenyl)urea]", "values": [{"measurement": "Ki", "setting": "[1]", "value": 19.2, "unit": "nM"}, {"measurement": "IC50", "setting": "[2]", "value": 1.07, "unit": "µM"}]}, {"smiles": "CC1(C)CN(c2ccccc2NC(=O)Nc2ccc(OC(F)(F)F)cc2)c2c(O)cc(F)c(-c3ccc(F)nc3)c21", "note": "[Example 188, 1-(2-(5-Fluoro-4-(6-fluoropyridin-3-yl)-7-hydroxy-3,3-dimethylindolin-1-yl)phenyl)-3-(4-(trifluoromethoxy)phenyl)urea]", "values": [{"measurement": "Ki", "setting": "[1]", "value": 4.7, "unit": "nM"}, {"measurement": "IC50", "setting": "[2]", "value": 0.38, "unit": "µM"}]}, {"smiles": "CSc1ncc(-c2c(F)cc(O)c3c2C(C)(C)CN3c2ccccc2NC(=O)Nc2ccc(OC(F)(F)F)cc2)cn1", "note": "[Example 189, 1-(2-(5-Fluoro-7-hydroxy-3,3-dimethyl-4-(2-(methylthio)pyrimidin-5-yl)indolin-1-yl)phenyl)-3-(4-(trifluoromethoxy)phenyl)urea]", "values": [{"measurement": "Ki", "setting": "[1]", "value": 7.2, "unit": "nM"}, {"measurement": "IC50", "setting": "[2]", "value": 0.25, "unit": "µM"}]}, {"smiles": "CC1(C)CN(c2ccccc2NC(=O)Nc2ccc(OC(F)(F)F)cc2)c2c(O)cc(F)c(-c3ccnc(F)c3)c21", "note": "[Example 190, 1-(2-(5-Fluoro-4-(2-fluoropyridin-4-yl)-7-hydroxy-3,3-dimethylindolin-1-yl)phenyl)-3-(4-(trifluoromethoxy)phenyl)urea]", "values": [{"measurement": "Ki", "setting": "[1]", "value": 10.6, "unit": "nM"}, {"measurement": "IC50", "setting": "[2]", "value": 0.48, "unit": "µM"}]}, {"smiles": "Cc1cc(-c2c(F)cc(O)c3c2C(C)(C)CN3c2ccccc2NC(=O)Nc2ccc(OC(F)(F)F)cc2)ccn1", "note": "[Example 191, 1-(2-(5-Fluoro-7-hydroxy-3,3-dimethyl-4-(2-methylpyridin-4-yl)indolin-1-yl)phenyl)-3-(4-(trifluoromethoxy)phenyl)urea]", "values": [{"measurement": "Ki", "setting": "[1]", "value": 12.3, "unit": "nM"}, {"measurement": "IC50", "setting": "[2]", "value": 0.19, "unit": "µM"}]}, {"smiles": "Cc1cc(-c2c(F)cc(O)c3c2C(C)(C)CN3c2ccccc2NC(=O)Nc2ccc(OC(F)(F)F)cc2)cnc1F", "note": "[Example 192, 1-(2-(5-Fluoro-4-(6-fluoro-5-methylpyridin-3-yl)-7-hydroxy-3,3-dimethylindolin-1-yl)phenyl)-3-(4-(trifluoromethoxy)phenyl)urea]", "values": [{"measurement": "Ki", "setting": "[1]", "value": 8.8, "unit": "nM"}, {"measurement": "IC50", "setting": "[2]", "value": 0.26, "unit": "µM"}]}, {"smiles": "CC1(C)CN(c2ccccc2NC(=O)Nc2ccc(OC(F)(F)F)cc2)c2c(O)ccc(-c3ccc(F)cc3)c21", "note": "[Example 193, 1-(2-(4-(4-Fluorophenyl)-7-hydroxy-3,3-dimethylindolin-1-yl)phenyl)-3-(4-(trifluoromethoxy)phenyl)urea]", "values": [{"measurement": "Ki", "setting": "[1]", "value": 6.9, "unit": "nM"}, {"measurement": "IC50", "setting": "[2]", "value": 0.12, "unit": "µM"}]}, {"smiles": "CC1(C)CN(c2ccccc2NC(=O)Nc2ccc(OC(F)(F)F)cc2)c2c(O)cc(F)c(-c3ccc(F)cc3)c21", "note": "[Example 194, 1-(2-(5-Fluoro-4-(4-fluorophenyl)-7-hydroxy-3,3-dimethylindolin-1-yl)phenyl)-3-(4-(trifluoromethoxy)phenyl)urea]", "values": [{"measurement": "Ki", "setting": "[1]", "value": 6.7, "unit": "nM"}, {"measurement": "IC50", "setting": "[2]", "value": 0.26, "unit": "µM"}]}, {"smiles": "CC1(C)CN(c2ccccc2NC(=O)Nc2ccc(OC(F)(F)F)cc2)c2c(O)ccc(-c3ccccc3)c21", "note": "[Example 195, 1-(2-(7-Hydroxy-3,3-dimethyl-4-phenylindolin-1-yl)phenyl)-3-(4-(trifluoromethoxy)phenyl)urea]", "values": [{"measurement": "Ki", "setting": "[1]", "value": 9, "unit": "nM"}, {"measurement": "IC50", "setting": "[2]", "value": 0.18, "unit": "µM"}]}, {"smiles": "CC1(C)CN(c2ccccc2NC(=O)Nc2ccc(OC(F)(F)F)cc2)c2c(O)ccc(-c3ccc(C(F)(F)F)cc3)c21", "note": "[Example 196, 1-(2-(7-Hydroxy-3,3-dimethyl 4-(4-(trifluoromethyl)phenyl)indolin-1-yl)phenyl)-3-(4-(trifluoromethoxy)phenyl)urea]", "values": [{"measurement": "Ki", "setting": "[1]", "value": 8, "unit": "nM"}, {"measurement": "IC50", "setting": "[2]", "value": 0.23, "unit": "µM"}]}, {"smiles": "CC1(C)CN(c2ccccc2NC(=O)Nc2ccc(OC(F)(F)F)cc2)c2c(O)ccc(-c3cc(F)cc(F)c3)c21", "note": "[Example 197, 1-(2-(4-(3,5-Difluorophenyl)-7-hydroxy-3,3-dimethylindolin-1-yl)phenyl)-3-(4-(trifluoromethoxy)phenyl)urea]", "values": [{"measurement": "Ki", "setting": "[1]", "value": 5.1, "unit": "nM"}, {"measurement": "IC50", "setting": "[2]", "value": 0.18, "unit": "µM"}]}, {"smiles": "CC1(C)CN(c2ccccc2NC(=O)Nc2csc(Cl)n2)c2c(O)ccc(-c3ccc(F)cc3)c21", "note": "[Example 198, 1-(2-Chlorothiazol-4-yl)-3-(2-(4-(4-fluorophenyl)-7-hydroxy-3,3-dimethylindolin-1-yl)phenyl)urea]", "values": [{"measurement": "Ki", "setting": "[1]", "value": 4.9, "unit": "nM"}, {"measurement": "IC50", "setting": "[2]", "value": 0.09, "unit": "µM"}]}, {"smiles": "CC1(C)CN(c2ccccc2NC(=O)Nc2nc3ccc(Cl)cc3s2)c2c(O)ccc(-c3ccc(F)cc3)c21", "note": "[Example 199, 1-(6-Chlorobenzo[d]thiazol-2-yl)-3-(2-(4-(4-fluorophenyl)-7-hydroxy-3,3-dimethylindolin-1-yl)phenyl)urea]", "values": [{"measurement": "Ki", "setting": "[1]", "value": 10.1, "unit": "nM"}, {"measurement": "IC50", "setting": "[2]", "value": 0.18, "unit": "µM"}]}, {"smiles": "CC(C)CN1CCCC1c1ccc(NC(=O)Nc2ccccc2N2CC(C)(C)c3c(-c4ccc(F)cc4)ccc(O)c32)cc1", "note": "(stereo not drawn) [Example 200, 1-(2-(4-(4-Fluorophenyl)-7-hydroxy-3,3-dimethylindolin-1-yl)phenyl)-3-(4-(1-isobutylpyrrolidin-2-yl)phenyl)urea]", "values": [{"measurement": "Ki", "setting": "[1]", "value": 4.6, "unit": "nM"}, {"measurement": "IC50", "setting": "[2]", "value": 0.05, "unit": "µM"}]}, {"smiles": "Cc1nc(NC(=O)Nc2ccccc2N2CC(C)(C)c3c(-c4ccc(F)cc4)ccc(O)c32)cs1", "note": "[Example 201, 1-(2-(4-(4-Fluorophenyl)-7-hydroxy-3,3-dimethylindolin-1-yl)phenyl)-3-(2-methylthiazol-4-yl)urea]", "values": [{"measurement": "Ki", "setting": "[1]", "value": 5.8, "unit": "nM"}, {"measurement": "IC50", "setting": "[2]", "value": 0.43, "unit": "µM"}]}, {"smiles": "CC(C)(C)CN1CCCC1c1ccc(NC(=O)Nc2ccccc2N2CC(C)(C)c3c(-c4ccc(F)cc4)ccc(O)c32)cc1", "note": "(stereo not drawn) [Example 202, 1-(2-(4-(4-Fluorophenyl)-7-hydroxy-3,3-dimethylindolin-1-yl)phenyl)-3-(4-(1-neopentylpyrrolidin-2-yl)phenyl)urea]", "values": [{"measurement": "Ki", "setting": "[1]", "value": 5.7, "unit": "nM"}, {"measurement": "IC50", "setting": "[2]", "value": 0.09, "unit": "µM"}]}, {"smiles": "CC1(C)CN(c2ccccc2NC(=O)Nc2ccc(OC(F)(F)F)cc2)c2c(O)ccc(-c3ccc(F)cc3F)c21", "note": "[Example 203, 1-(2-(4-(2,4-Difluorophenyl)-7-hydroxy-3,3-dimethylindolin-1-yl)phenyl)-3-(4-(trifluoromethoxy)phenyl)urea]", "values": [{"measurement": "Ki", "setting": "[1]", "value": 8, "unit": "nM"}, {"measurement": "IC50", "setting": "[2]", "value": 0.16, "unit": "µM"}]}]}
